Values after ≈ are worked out from the molar mass of the structure shown. One block for each compound: values may come before it.
Columns and labels:
[1] = Solubility in aqueous buffers of different pH; format: physicochemical; conditions: for solubility: aqueous buffer
[2] = format: physicochemical
Method: The stability of crystalline amlodipine free base bulk and amlodipine free base tablets was assessed by storing samples for up to 6 or 12 weeks at 25° C./60% RH, 40° C./75% RH and 50° C./20% RH. Changes were monitored using a stability-indicating HPLC method. Results were calculated by normalised peak area (npa). Degradants were identified by comparison of their relative retention times against impurity standards.

solubility ([1]; pH 1.2, simulated gastric fluid, SGN pH: 1.20): > 5000 µg/mL | solubility ([1]; Acetate pH: 5.93): > 5000 µg/mL | solubility ([1]; Glycine pH: 9.25): 130 µg/mL (≈ 318 µM) | solubility ([1]; NaOH pH: 11.44): < 50 µg/mL | solubility ([1]; Phosphate pH: 7.71): 720 µg/mL (≈ 1760 µM)
SMILES: CCOC(=O)C1=C(COCCN)NC(C)=C(C(=O)OC)C1c1ccccc1Cl (racemic) [Example 2, Amlodipine]

Stability with respect to formation of known and unknown degradants [2]: stability was demonstrated
SMILES: CCOC(=O)C1=C(COCCN)NC(C)=C(C(=O)OC)C1c1ccccc1Cl (stereo not shown) [crystalline amlodipine free base, 2-[(2-aminoethoxy)]-methyl-4-(2-chlorophenyl)-3-ethoxycarbonyl-5-methoxycarbonyl-6-methyl-1,4-dihydropyridine]

Solubility (in words) ([1]; solid free base initially synthesised in-house, no conditions given): poorly soluble
SMILES: CCOC(=O)C1=C(COCCN)NC(C)=C(C(=O)OC)C1c1ccccc1Cl (stereo not shown) [solid free base initially synthesised, Amlodipine, reference compound]
